Common to all, as to experiment: DTP human tumour cell line panel, 48 h
Assay [1] has as its system LOX IMVI melanoma.
Assay [2] has as its system NCI-H226 lung.
Assay [3] deals with PC-3 prostate.
The test system of assay [4] is KM12 colon.
The test system of assay [5] is HCT-15 colon.
The subject of assay [6] is SF-539 CNS.
Assay [7] concerns MDA-MB-435.
Assay [8] has as its system EKVX NSCLC.
For assay [9], the system named is RPMI-8226 leukemia.
The test system of assay [10] is IGROV1 ovarian.
The test system of assay [11] is SW-620 colon.
Assay [12] relates to HOP-92 NSCLC.
Assay [13] concerns HS 578T breast.
Assay [14] relates to U251 CNS.
For assay [15], the system named is A549 NSCLC.
In assay [16] the test system is SN12C renal.
In assay [17] the test system is HOP-62 NSCLC.

The results in this text go back to PubChem BioAssay (NCI).

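Test compounds were applied to cells in 96-well plates for 48 hours at 5 doses. TGI is the concentration that stops growth completely.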 Bounds are passed on as bounds.

In the case of `C=CCc1cc(C=C(C#N)C#N)cc(OC)c1O`, the TGI in [1], in assay [2], in assay [3], in [4], in assay [5] and in [6] was greater than 100 µM each time. Moreover, the TGI in assay [7], in [8], in [9], in assay [10], in assay [11] and in assay [12] was greater than 100 µM in each case. Further, the TGI in assay [13], in assay [14] and in assay [15] was greater than 100 µM each time.

Take `CSc1c(C(=O)Nc2ccc(C)cc2)c(N)n(N)c(=O)c1C#N`: the TGI in assay [1], in [16], in assay [2], in assay [3], in assay [4] and in assay [5] was greater than 100 µM in each case. Besides, the TGI in [6], in [7], in assay [8], in assay [9], in [10] and in assay [11] was greater than 100 µM in each case. Further, the TGI in assay [13], in assay [14] and in [15] was greater than 100 µM each time.

`COC(=O)c1ccc(NCc2c(O)ccc(O)c2Br)cc1Cl`: the TGI was 27.3 µM in [1]; 25.7 µM in assay [16]; greater than 100 µM in assay [2]; 44 µM in assay [3]; 31 µM in assay [4]; 35.9 µM in [5]. The TGI is 30.4 µM in assay [6]; 26.5 µM in [7]; 28.5 µM in assay [8]; greater than 100 µM in [9]; 28.7 µM in assay [10]; 25 µM in [11]. For the same compound, the TGI is 28.4 µM in [12], 95.4 µM in [13], 30.4 µM in assay [14] and greater than 100 µM in assay [15].

As for `Cc1cc(C)c2c(c1)C1=NCCN1C2(O)c1ccc(Cl)cc1` (configuration not stated), the TGI in [1] amounted to 93.4 µM; in [16] it was 30.3 µM; in [17], 29.3 µM; in assay [3] it was 36.3 µM; in assay [4], 30 µM; in [5], 32.4 µM. In addition, the TGI in [6] was 29 µM; in assay [7] it was 32.5 µM; in assay [8], 33.3 µM; in [9] it was 33.2 µM; in assay [10], 27.4 µM; in assay [11], 29.2 µM. Besides, the TGI in assay [12] stood at 28.6 µM; in assay [13], 32 µM; in assay [14], 32.3 µM; in [15] it was 35.5 µM.

On to `CCOC(=O)C1=c2[nH]c3cccc4cccc(c43)n2C(=O)CC1c1ccccc1` (configuration not stated), for which the TGI in assay [1], in [16], in assay [17], in assay [2], in assay [3] and in assay [4] was greater than 100 µM throughout. Moreover, the TGI in [5], in [7], in assay [8], in [9], in assay [10] and in [11] was greater than 100 µM each time. Besides, the TGI in assay [12], in assay [13], in assay [14] and in assay [15] was greater than 100 µM throughout.

On to `CCCCc1ccc(-n2sc3ncc([N+](=O)[O-])cc3c2=O)cc1`, for which the TGI in assay [1] was determined as 26.1 µM; in assay [16], 32.7 µM; in assay [17] it was 36.7 µM; in [2], 51.4 µM; in assay [3], 18.7 µM; in [4], 25.4 µM. For the same compound, the TGI in [5] came to 28.4 µM; in assay [6], 39.7 µM; in assay [7] it was 52.3 µM; in [8] it was 29.8 µM; in assay [9], 32.5 µM; in assay [10], 28.1 µM. Besides, the TGI in [11] is 35.9 µM; in [13], 30.8 µM; in assay [14] it was 29.1 µM; in [15] it was 27.3 µM.

As for `Cc1cc(C)nc(SCC(=O)OC2CC(C)CCC2C(C)C)n1` (configuration not stated), the TGI in [1] amounted to 37.5 µM; in assay [16] it was 37.2 µM; in assay [17], 27.2 µM; in assay [3] it was 69.5 µM; in assay [4], 42.7 µM; in assay [5], 43.8 µM. The TGI was 58.3 µM in assay [7]; 39.3 µM in [8]; 41.3 µM in assay [9]; 65.6 µM in assay [10]; 52.3 µM in assay [11]; 67.1 µM in [12]. The TGI was greater than 100 µM in assay [13], 53.8 µM in assay [14] and 63.4 µM in [15].

For the compound `CC(C)OP(=O)(OC(C)C)c1ccc2c(c1)OCCOCCOCCOCCO2`, the TGI in assay [1], in assay [16], in assay [17], in assay [2], in assay [3] and in assay [4] was greater than 100 µM each time. Moreover, the TGI in assay [5], in assay [6], in assay [7], in assay [8], in [9] and in [10] was greater than 100 µM in each case. The TGI in assay [11], in [13] and in assay [15] was greater than 100 µM each time.

For `O=c1c2ccccc2nc2n1C(c1ccc([N+](=O)[O-])cc1)C2(c1ccccc1)c1ccccc1` (configuration not stated), the TGI in assay [1], in assay [16], in assay [17], in assay [3], in assay [4] and in assay [5] was greater than 100 µM each time. The TGI in [6], in assay [7], in assay [8], in assay [9], in assay [10] and in [11] was greater than 100 µM throughout. The TGI in assay [12], in assay [13], in [14] and in assay [15] was greater than 100 µM in each case.

For `CCOC(=O)C1C(c2ccc(O)c(OC)c2)c2c([nH][nH]c2=O)CC1(C)O` (configuration not stated), the TGI in assay [1], in assay [16], in [17], in [3], in assay [4] and in [5] was greater than 100 µM each time. Besides, the TGI in assay [6], in assay [7], in assay [8], in assay [9], in assay [10] and in assay [11] was greater than 100 µM each time. Further, the TGI in assay [12], in assay [13], in assay [14] and in [15] was greater than 100 µM in each case.

`Cc1ccc(C2SCC(=O)N2c2ccc(-c3ccc(-n4c(-c5ccccc5)nc5ccccc5c4=O)cc3)cc2)cc1` (configuration not stated): the TGI in assay [1], in assay [16], in [17], in [3], in assay [4] and in assay [5] was greater than 100 µM throughout. Further, the TGI in assay [7], in assay [8], in assay [9], in assay [10], in assay [11] and in assay [12] was greater than 100 µM each time. The TGI in assay [13], in assay [14] and in assay [15] was greater than 100 µM each time.

With `CO/C(=C/C(=O)C(Cl)(Cl)Cl)CC/C(=C\C(=O)C(Cl)(Cl)Cl)OC`, the TGI is 41.5 µM in assay [1]; 54.5 µM in [16]; 49.5 µM in assay [17]; 87.7 µM in assay [3]; 98.9 µM in assay [4]; 73.1 µM in [5]. The TGI was 63.2 µM in [6]; 53.4 µM in assay [7]; 59.7 µM in assay [8]; 70.9 µM in [9]; 35.8 µM in assay [10]; greater than 100 µM in [11]. The TGI in [12] was 40.1 µM; in assay [13] it was greater than 100 µM; in assay [14], 54.7 µM; in [15], greater than 100 µM.

As to `CN1C(=O)C(C(N)=O)C2CC1(C)Oc1ccccc12` (configuration not stated), the TGI in [1], in [16], in assay [17], in assay [2], in assay [3] and in [4] was greater than 100 µM throughout. Further, the TGI in assay [5], in assay [7], in [8], in [9], in assay [10] and in assay [11] was greater than 100 µM in each case. Further, the TGI in [12], in [13], in assay [14] and in [15] was greater than 100 µM in each case.

For `COc1cc(/C=C/c2nc(N)nnc2C)cc(OC)c1OC`, the TGI was greater than 35.9 µM in assay [1]; greater than 100 µM in assay [16]; 29 µM in assay [17]; greater than 55.4 µM in assay [2]; greater than 53 µM in assay [3]; greater than 50.5 µM in [4]. In addition, the TGI in assay [5] is 38.9 µM; in [7], greater than 94.7 µM; in assay [8] it was greater than 72.9 µM; in assay [9], 52.5 µM; in assay [10], 37.3 µM; in assay [11], greater than 100 µM. Besides, the TGI in [12] was greater than 100 µM; in assay [13] it was greater than 67.5 µM; in [14], greater than 100 µM; in assay [15], greater than 79.4 µM.

With `O=C1CCCC(=O)N1n1c(Cc2ccccc2)n[nH]c1=O`, the TGI in assay [1], in assay [16], in assay [17], in assay [2], in assay [3] and in assay [4] was greater than 100 µM throughout. Besides, the TGI in [5], in [7], in assay [8], in assay [9], in assay [10] and in assay [11] was greater than 100 µM in each case. Moreover, the TGI in assay [12], in assay [13], in assay [14] and in assay [15] was greater than 100 µM in each case.

As for `O=C(O)CCNC(=O)c1cc(N(CCBr)CCBr)c([N+](=O)[O-])cc1[N+](=O)[O-]`, the TGI in assay [1], in assay [16], in assay [17], in [2], in assay [3] and in assay [4] was greater than 100 µM throughout. Further, the TGI in assay [5], in assay [7], in assay [8], in assay [9], in assay [10] and in [11] was greater than 100 µM throughout. The concentration for total growth inhibition (TGI) in [12], in [13], in assay [14] and in assay [15] was greater than 100 µM in each case.

As for `O=C(CC(C(=O)c1cccs1)c1cccs1)c1ccccc1Cl` (configuration not stated), the TGI in assay [1], in assay [16], in assay [17], in assay [2], in [3] and in assay [4] was greater than 100 µM throughout. Also, the TGI in assay [5], in [6], in [7], in assay [8], in assay [9] and in assay [10] was greater than 100 µM throughout. The TGI in assay [11], in assay [13], in assay [14] and in [15] was greater than 100 µM throughout.
